Experimental data taken from patent US10597696B2, “Detection of Niemann-Pick disease comprising detection of lysozyme and cathepsins” (UNIVERSITY OF NOTRE DAME DU LAC, priority 2013, dated 2020).
“Also recorded” adds a separate entry of the source.

How the values were obtained:
[1] = tested on: Npc1^nih Npc1^−/− mouse liver; test: qPCR of cathepsins, inflammation and fibrosis markers in liver after HPβCD; format: in vivo
Text: In mice, formalin fixed paraffin embedded tissue was sectioned (4-5 μm) and total RNA was isolated using RNeasy FFPE kit (Qiagen, Germantown, Md., USA) which included treatment with DNAse. Frozen human liver and cerebellum from 4 NPC patients and 4 age-, gender- and ethnicity-matched controls were obtained from the NICHD Brain and Tissue Bank for Developmental Disorders (University of Maryland, Baltimore, Md., USA), as approved by the Institutional Review Board (IRB), of the University of Notre Dame, Ind., USA (FWA 00002462). Total RNA was isolated using RNeasy kit (Qiagen, Germantown, Md., USA). Eluted RNA was further digested with RNase free DNaseI and re-purified using RNeasy column. The quality of RNA was checked using Bioanalyzer chip (Agilent Technologies, Santa Clara, Calif., USA) and quantity was determined using Nanodrop 2000 (Thermo Fisher Scientific, Waltham, Mass., USA). Quantitative PCR (qPCR) was performed using Power SYBR Green RNA-to-CT 1-Step Kit and an ABI Prism 7500 Fast real-time PCR system (Applied Biosystems, Grand Island, USA). Reaction was set in 20 μl using 100 nM primers and 5-100 ng total RNA as template. The thermal cycling parameters were as follows: step 1, 48° C. for 30 min; step 2, 95° C. for 10 min; step 3, 95° C. for 15 sec ° C.; step 4, 60° C. for 15 sec. Step 3-4 was repeated for 40 cycles followed by melt curve analysis. Specific amplification was validated by analysis of template titration, melt curves and agarose gel electrophoresis. In both mouse and human tissues, the mRNA levels were normalized to the housekeeping gene, Gapdh (Glyceraldehyde 3-phosphate dehydrogenase). Fold change was calculated by relative standard curve method after correcting PCR efficiency. In mice, the fold change in expression levels of different genes in Npc1^−/− was calculated relative to average levels of expression in Npc1^+/− mice. In human tissues, fold change in transcript expression in NPC liver and cerebellum was expressed relative to average expression in age-matched controls. Starting at P21 and once a week thereafter, Npc1^nih and Npc1^nmf164 mice were injected i.p with 20% 2-hydroxypropyl-beta-cyclodextrin (HPβCD, 4000 mg/Kg) prepared in 0.2% DMSO and 0.9% saline. Control mice received 0.2% DMSO in 0.9% saline. Blood was collected either via cheek bleed or terminal heart bleed from mice in EDTA tubes (BD Biosciences, San Jose, Calif., USA). Plasma was separated by centrifugation at 2500 rpm for 15 min and stored at −70° C. until used.

[2] = tested on: Npc1^nih Npc1^−/− mouse brain; test: Immunohistochemistry of brain sections after HPβCD; format: in vivo; details: immunofluorescence
Description: Mice were sacrificed by asphyxiation using CO2. The circulatory bed was washed with PBS (pH 7.4), and subsequently perfused with 10% neutral buffered formalin (˜4% formaldehyde). The organs (brain and liver) were surgically harvested and stored in 4% formaldehyde at room temperature (RT) until transfer to paraffin. Paraffin-embedded tissue sections (3-4 μm) were dewaxed in xylene and alcohol. For Ly-6G and calbindin staining, antigen retrieval was done by pre-incubating deparaffinized samples with 0.05% proteinase K (Dako, Germany) in 50 mM Tris-HCl (pH 7.5) for 8 min at RT. CTSS and lysozyme were retrieved by boiling the sections in acidic condition for 30 min. Sections were incubated with anti-Ly-6G (20 μg/ml), anti-calbindin (1:1000), anti-CTSS (20 μg/ml) or anti-lysozyme (1:20) overnight at 4° C. Reagents were prepared according to the manufacturer's instructions (Vector laboratories). The staining protocol was followed as described previously (19). The secondary antibody for neutrophil staining was biotinylated rabbit anti-rat IgG (mouse absorbed, Vector Laboratories) and for Purkinje neurons was biotinylated horse anti-mouse IgG (Vector Laboratories).
For fluorescence microscopy, FITC-conjugated IgG (MP Biomedicals, Solon, Ohio, USA) was the secondary antibody. Sections stained only with secondary antibodies served as controls. Brightfield images were acquired on a Nikon Olympus microscope, using a Nikon digital DS-Fi1-U2 camera controlled by NIS-Elements F3.0 Nikon software (all from Nikon Instruments INC, Tokyo, Japan). Images were visualized with A10 PL 10×/0.25, or a DPIan Apo 40×/1.00 oil-immersion or a DPIan Apo 100×/1.30 oil-immersion objective lens (Nikon). Fluorescence microscopy and digital image collection were performed using an Olympus IX inverted fluorescence microscope and a Photometrix cooled CCD camera (CH350/LCCD) driven by DeltaVision software from Applied Precision (Seattle, Wash., USA). […] ImageJ (National Institute of Health, Bethesda, Md., USA) software was used to process and quantify the fluorescence intensity of CTSS and lysozyme. […]

Npc1^nih Npc1^−/− mice = test: Plasma lysozyme activity in HPβCD-treated Npc1^nih mice; format: in vivo, mouse
Description: Lysozyme activity in plasma was measured using fluorescence based lysozyme assay kit (EnzCheck, Life Technologies, Carlsbad, Calif., USA) as describer earlier (19). Plasma corresponding to 25 μg protein from female and male Npc1^nih mice was used in a 100 μl reaction volume. The reaction was carried out at 37° C. for 24 h. Fluorescence was read using excitation/emission of 494/518 nm in a multiwell plate reader spectramax M2 (Molecular devices, CA, USA). The values obtained were normalized by dividing the numbers by the mean value of lysozyme obtained among untreated Npc1^+/− mice. Purified chicken egg white lysozyme was used as a positive control. Starting at P21 and once a week thereafter, Npc1^nih and Npc1^nmf164 mice were injected i.p with 20% 2-hydroxypropyl-beta-cyclodextrin (HPβCD, 4000 mg/Kg) prepared in 0.2% DMSO and 0.9% saline. Control mice received 0.2% DMSO in 0.9% saline. Blood was collected either via cheek bleed or terminal heart bleed from mice in EDTA tubes (BD Biosciences, San Jose, Calif., USA). Plasma was separated by centrifugation at 2500 rpm for 15 min and stored at −70° C. until used.

[3] = Npc1^nih Npc1^−/−, weekly HPβCD, at 80+ days

## CC(O)COC[C@H]1O[C@@H]2O[C@H]3[C@H](O)[C@@H](O)[C@@H](O[C@H]4[C@H](O)[C@@H](O)[C@@H](O[C@H]5[C@H](O)[C@@H](O)[C@@H](O[C@H]6[C@H](O)[C@@H](O)[C@@H](O[C@H]7[C@H](O)[C@@H](O)[C@@H](O[C@H]8[C@H](O)[C@@H](O)[C@@H](O[C@H]1[C@H](O)[C@H]2O)O[C@@H]8COCC(C)O)O[C@@H]7COCC(C)O)O[C@@H]6COCC(C)O)O[C@@H]5COCC(C)O)O[C@@H]4COCC(C)O)O[C@@H]3COCC(C)O (stereo partly drawn) [HPβCD, 2-hydroxypropyl-beta-cyclodextrin]
[1]; Npc1^−/− mice
  expression of Cd68 in liver: reduced to normal levels
  expression of Col1a in liver: anomalous reduction
  expression of Itgax in liver: reduced to normal levels
[1]; Npc1^−/− mice, late stages
  Lyz1 expression in liver: abrogated Lyz1 over expression; also recorded: restored lysozyme transcript and protein to normal levels
[1]; late stage Npc1^−/− mice
  expression of Ctss in liver: markedly reduced and equivalent to control mice
[2]; FIG. 19E-F
  lysozyme levels in the cerebellum (white mater region): no significant effect
[2]; FIG. 19I-K
  reduction of lysozyme in molecular layer of the cerebellum: ~25%
[2]; ImageJ quantification
  reduction of CTSS levels in hippocampal neurons: ~20%
Npc1^nih Npc1^−/− mice; NPC mice, composite quartile analysis (FIG. 20B)
  decrease of plasma lysozyme: 50%
Npc1^nih Npc1^−/− mice; Npc1^nih Npc1^−/−, weekly 4000 mg/Kg from P21, at 50-60 days
  plasma lysozyme activity: reduced plasma lysozyme activity levels seen in wild type mice
Npc1^nih Npc1^−/− mice; [3]
  plasma lysozyme compared to mock treated animals: reduction
  plasma lysozyme increase compared to normal animals: 1.5 fold
